In US20120028917A1, “Use Of N-(4-((3-(2-Amino-4-Pyrimidinyl)-2-Pyridinyl)Oxy)Phenyl)-4-(4-Methyl-2-Thienyl)-1-Phthalazinamine In The Treatment Of Antimitotic Agent Resistant Cancer” (Amgen Inc., priority 2009, published 2012) one finds EC50 data, which are given here for one molecule.

Each structure is given as a SMILES string. Where two headings read alike, the source gives them in different places.

The subject of one assay is RPMI8226. Briefly: ≧4N DNA content assay (flow cytometry). Type of assay: cell-based, human. Particulars: Homo sapiens. On the procedure: (§1) Tumor cells were treated with AMG 900, AZD1152, MK-0457, or PHA-739358 (range concentration varied based on potency) for 24 hours and processed for cell-cycle analysis (DNA staining only) as previously described (1). Cells were analyzed on a LSRII flow cytometer using BD FACS Diva software. The concentration-response curves and corresponding EC50 values were calculated using the percentage of cells with ≧4N DNA content versus the DMSO control.
(In general: In flow cytometry, cells or beads pass a laser one at a time.)

A further assay deals with U226-B1. Briefly: ≧4N DNA content assay (flow cytometry). Particulars: Homo sapiens; U226-B1, BCRP −; 24 hours. Type of assay: cell-based, human. The method, then:
as §1

The test system of another assay is 769P. The assay can be described thus: Cellular EC50, additional cell lines (Table 6-B). In kind it is cell-based. The conditions noted are these: Homo sapiens, Kidney, P-gp+. The method, then:
(§2) All high-content cell assays were performed on an ArrayScan VTi HCS Reader (Cellomics). Tumor cell lines were treated with AMG 900, AZD1152, MK-0457, or PHA-739358 (concentration range varied based on potency). The cells were prepared for intracellular staining with an anti-p-histone H3 Ser^10 antibody as previously described (1). Detection was performed with an anti-rabbit IgG-alexa-568 antibody and DAPI. The cellular levels of p-histone H3 were analyzed using Target Activation V2 algorithm (Cellomics) to determine the percentage of positive cells. For the imaging assays, the concentration-response curves and corresponding IC50 and EC50 values were calculated using the percentage of cells affected versus the DMSO control.
as §1

For another assay, the system named is SNU499. The assay can be described thus: Cellular EC50, additional cell lines (Table 6-B). In kind it is cell-based. Particulars: Homo sapiens, Liver, P-gp+. The method, then:
as §2, §1

For assay [1], the system named is three matched taxol-resistant and -sensitive tumor cell lines. The assay can be described thus: Matched taxol-resistant and -sensitive tumor cell lines (summary). The conditions noted are these: Homo sapiens; all three matched taxol-resistant and -sensitive tumor cell lines. Type of assay: cell-based. The method, then: MES-SA Dx5 and MES-SA cells were plated at a density of 10,000 cells/well onto 96-well plate in complete media and cultured for 24 hours. […] Cells were washed and fixed by adding 100 μL of 2× formaldehyde fixation buffer for 10 minutes and room temperature. […] Cells were immunostained with p-histone H3 antibody (5 μg/mL) and incubated at room temperature for 2 hours. Cells were washed in 100 μL of wash buffer. Next, cells were incubated with a goat anti-rabbit alexa-488 conjugated antibody (1.5 μg/mL) in wash buffer supplemented with Hoechest DNA dye (1 μg/mL) and incubated at room temperature in the dark for 30 minutes. Cells were washed twice with 100 μL of wash buffer. The 96-well plates were analyzed on an ArrayScan VTi (Cellomics) using a bioapplication algorithm (TargetActivation.V2). […] NCI-H460 parental and NCI-H460 taxol-resistant cells were seeded at a density of 500,000 cells/well in a 6-well plate in 2 mL of appropriate complete media. The next day cells were treated with AMG 900 or taxol over a 6-point concentration range with a final DMSO concentration of 0.05% in media. After 24 hours, cells were pulsed with BrdU (1:100 dilution) and harvested. […] Data was acquired and analyzed by flow cytomety (LSRII). […] The +4N (same as ≧4N) DNA content or SubG1 cellular EC50 values were calculated using a 4-parameter equation. […] Data was acquired and analyzed by flow cytometry (LSRII). […]

Consider `Cc1csc(-c2nnc(Nc3ccc(Oc4ncccc4-c4ccnc(N)n4)cc3)c3ccccc23)c1` [AMG 900, N-(4-((3-(2-amino-4-pyrimidinyl)-2-pyridinyl)oxy)phenyl)-4-(4-methyl-2-thienyl)-1-phthalazinamine], for which the EC50 (commonly the concentration that produces a half-maximal response) in the assay with RPMI8226 (RPMI-8226, RPMI8226, BCRP +, 24 hours, read-out: ≧4N DNA Content assay, EC50 value) is 3 nM; in the assay with RPMI8226 (RPMI-8226**, Multiple Myeloma, P-gp− and/or BCRP+, read-out: Cellular EC50), 3 nM; in the assay with U226-B1 it was 2 nM; with 769P it was 4 nM; with SNU499 it was 2 nM; in assay [1] it was < 2 nM.
